According to patent US10857110B2, “Antibacterial compounds” (CONSEJO NACIONAL DE INVESTIGACIONES CIENTÍFICAS Y TÉCNICAS …, priority 2016, dated 2020):
Converted amounts (≈) assume the structure as drawn.

Legend:
[1] = system: B. contaminans (HNBC001); assay: MIC/MBC antibiotic sensitivity (CLSI); type: cell-based; conditions: Ceftazimide, CLSI criteria
Experimental: (§1) The new compounds of the invention were synthesized following the general method of preparation (Tetrahedron, 2001, 57, 1671-1675), from the reaction between an intermediary compound of the acyl thiourea and HgCl2 in presence of trimethylamine. The products were adequately characterized regarding its chemistry. The antibacterial activity of the new compounds was assayed against two Gram-positive reference strains: Staphylococcus aureus (ATCC6538) and Bacillus cereus (ATCC10876), a fermenting Gram-negative strain: Escherichia coli (ATCC25922), and 26 non-fermenting Gram-negative isolates, including 3 reference strains: Pseudomonas aeruginosa (PAO1), Bordetella bronchiseptica (9.73H+), and Inquilinus limosus (DSM16000), and 23 isolates recovered from patients suffering from cystic fibrosis, including one Achromobacter xylosoxidans isolate, and 22 isolates belonging to the Burkholderia cepacia complex. The later were selected because they presented resistance to a high number of antimicrobial compounds, among a panel of 125 clinical isolates previously analyzed for its resistance against 17 antimicrobial compounds (1,2). The antibiotic sensitivity studies were performed by applying two quantitative methods which allow to determine the minimum inhibitory concentration (MIC) and the minimum bactericidal concentration (MBC).
(§2) The compounds obtained in Examples 1 and 2 were assayed against 23 isolates recovered from the sputum of patients suffering from cystic fibrosis being treated at the Sor Maria Ludovica Children Hospital (La Plata, Buenos Aires, Argentina). Nineteen of these isolates were selected for being highly resistant to most of the antimicrobial agents of clinical use from a panel of 125 isolates previously characterized in Martina et al. (1). Reference strains were also included: Gram (+) bacteria: B. cereus and S. aureus, fermenting Gram (−) bacteria: E. coli, and non-fermenting Gram (−) bacteria: Inquilinus limosus (DSM16000), B. bronchiseptica, and Pseudomonas aeruginosa (PAO1). The antibiotic sensitivity studies were performed applying two quantitative methods which allow to determine the minimum inhibitory concentration (MIC) and the minimum bactericidal concentration (MBC) according to the criteria established by the Clinical and Laboratory Standards Institute (CLSI) (4). For comparative purposes, three antibiotics commonly used in the treatment of pulmonary infections in cystic fibrosis patients were included in the study: tobramycin, ceftazidime and meropenem.

[2] = system: Bacillus cereus (ATCC10876); assay: MIC/MBC antibiotic sensitivity (CLSI); type: cell-based
Experimental: as §1, §2

[3] = system: Bordetella bronchiseptica (9.73H+); assay: MIC/MBC antibiotic sensitivity (CLSI); type: cell-based; conditions: B. bronchiseptica (9.73H+)
Experimental: as §1, §2

[4] = system: Burkholderia cenocepacia (CBC 023); assay: MIC/MBC antibiotic sensitivity (CLSI); type: cell-based; conditions: Ceftazimide, CLSI criteria; B. cenocepacia (CBC 023)
Experimental: as §1, §2

[5] = system: Burkholderia cenocepacia (CBC 024); assay: MIC/MBC antibiotic sensitivity (CLSI); type: cell-based
Experimental: as §1, §2

[6] = system: Burkholderia cenocepacia (CBC 029); assay: MIC/MBC antibiotic sensitivity (CLSI); type: cell-based
Experimental: as §1, §2

[7] = system: Burkholderia cenocepacia (CBC 031); assay: MIC/MBC antibiotic sensitivity (CLSI); type: cell-based
Experimental: as §1, §2

[8] = system: Burkholderia cenocepacia (CBC 032); assay: MIC/MBC antibiotic sensitivity (CLSI); type: cell-based
Experimental: as §1, §2

[9] = system: Burkholderia cenocepacia (CBC 033); assay: MIC/MBC antibiotic sensitivity (CLSI); type: cell-based
Experimental: as §1, §2

[10] = system: Burkholderia cenocepacia (CBC 035); assay: MIC/MBC antibiotic sensitivity (CLSI); type: cell-based
Experimental: as §1, §2

[11] = system: Burkholderia cenocepacia (CBC 036); assay: MIC/MBC antibiotic sensitivity (CLSI); type: cell-based
Experimental: as §1, §2

[12] = system: Burkholderia cenocepacia (HE001); assay: MIC/MBC antibiotic sensitivity (CLSI); type: cell-based; conditions: Ceftazimide, CLSI criteria; B. cenocepacia (HE001)
Experimental: as §1, §2

[13] = system: Burkholderia cepacia (CBC 010); assay: MIC/MBC antibiotic sensitivity (CLSI); type: cell-based; conditions: Ceftazimide, CLSI criteria; B. cepacia (CBC 010)
Experimental: as §1, §2

[14] = system: Burkholderia cepacia (CBC 011); assay: MIC/MBC antibiotic sensitivity (CLSI); type: cell-based; conditions: Ceftazimide, CLSI criteria; B. cepacia (CBC 011)
Experimental: as §1, §2

[15] = system: Burkholderia multivorans (CBC 015); assay: MIC/MBC antibiotic sensitivity (CLSI); type: cell-based
Experimental: as §1, §2

[16] = system: Burkholderia multivorans (CBC 016); assay: MIC/MBC antibiotic sensitivity (CLSI); type: cell-based
Experimental: as §1, §2

[17] = system: Burkholderia multivorans (CBC 018); assay: MIC/MBC antibiotic sensitivity (CLSI); type: cell-based
Experimental: as §1, §2

[18] = system: Burkholderia multivorans (CBC 019); assay: MIC/MBC antibiotic sensitivity (CLSI); type: cell-based; conditions: Ceftazimide, CLSI criteria; B. multivorans (CBC 019)
Experimental: as §1, §2

[19] = system: Burkholderia multivorans (CBC 020); assay: MIC/MBC antibiotic sensitivity (CLSI); type: cell-based; conditions: Ceftazimide, CLSI criteria; B. multivorans (CBC 020)
Experimental: as §1, §2

[20] = system: Burkholderia multivorans (CBC 021); assay: MIC/MBC antibiotic sensitivity (CLSI); type: cell-based; conditions: Ceftazimide, CLSI criteria; B. multivorans (CBC 021)
Experimental: as §1, §2

[21] = system: Burkholderia multivorans (CBC 022); assay: MIC/MBC antibiotic sensitivity (CLSI); type: cell-based; conditions: Ceftazimide, CLSI criteria; B. multivorans (CBC 022)
Experimental: as §1, §2

[22] = system: Burkholderia seminalis (CBC 040); assay: MIC/MBC antibiotic sensitivity (CLSI); type: cell-based; conditions: Ceftazimide, CLSI criteria; B. seminalis (CBC 040)
Experimental: as §1, §2

[23] = system: Burkholderia seminalis (CBC 042); assay: MIC/MBC antibiotic sensitivity (CLSI); type: cell-based; conditions: Ceftazimide, CLSI criteria; B. seminalis (CBC 042)
Experimental: as §1, §2

[24] = system: Escherichia coli (ATCC25922); assay: MIC/MBC antibiotic sensitivity (CLSI); type: cell-based; conditions: E. coli (ATCC25922)
Experimental: as §1, §2

[25] = system: Inquilinus limosus (DSM16000); assay: MIC/MBC antibiotic sensitivity (CLSI); type: cell-based; conditions: Ceftazimide, CLSI criteria
Experimental: as §1, §2

[26] = system: Pseudomonas aeruginosa (PAO1); assay: MIC/MBC antibiotic sensitivity (CLSI); type: cell-based; conditions: P. aeruginosa (PAO1)
Experimental: as §1, §2

[27] = system: Staphylococcus aureus (ATCC6538); assay: MIC/MBC antibiotic sensitivity (CLSI); type: cell-based; conditions: S. aureus (ATCC6538)
Experimental: as §1, §2

[28] = system: B. cenacepacia (FQC2524); assay: MIC/MBC antibiotic sensitivity (CLSI); type: cell-based, B. cenocepacia; conditions: Ceftazimide, CLSI criteria
Experimental: as §1, §2

[29] = system: Achromobacter xylosaxidans (HNA001); assay: MIC/MBC antibiotic sensitivity (CLSI); type: cell-based, Achromobacter xylosoxidans; conditions: Ceftazimide, CLSI criteria; A. xylosaxidans (HNA001)
Experimental: as §1, §2

[30] = system: Burkholderia seminalis (CBC 040); conditions: reference (1); cited from earlier work

Compound: CC(C)(O/N=C(\C(=O)N[C@@H]1C(=O)N2C(C(=O)[O-])=C(C[n+]3ccccc3)CS[C@H]12)c1csc(N)n1)C(=O)O [Ceftazimide, ceftazidime]
- MIC (R/I/S category) [1]: S (<8 μg/ml S)
- MBC [2]: 0.97 µg/mL (≈ 1.77 µM)
- MIC [2]: 0.97 µg/mL (≈ 1.77 µM)
- MBC [3]: 62.5 µg/mL (≈ 114 µM)
- MIC [3]: 7.81 µg/mL (≈ 14.3 µM)
- MIC (R/I/S category) [4]: R (>32 μg/ml R)
- MBC ([5]; Burkholderia cenocepacia (CBC 024)): 7.81 µg/mL (≈ 14.3 µM)
- MIC (R/I/S category) ([5]; Ceftazimide, CLSI criteria, B. cenocepacia (CBC 024)): S (<8 μg/ml S)
- MBC ([6]; Burkholderia cenocepacia (CBC 029)): 15.62 µg/mL (≈ 28.6 µM)
- MIC (R/I/S category) ([6]; Ceftazimide, CLSI criteria, B. cenocepacia (CBC 029)): S (<8 μg/ml S)
- MBC ([7]; Burkholderia cenocepacia (CBC 031)): 7.81 µg/mL (≈ 14.3 µM)
- MIC (R/I/S category) ([7]; Ceftazimide, CLSI criteria, B. cenocepacia (CBC 031)): S (<8 μg/ml S)
- MBC ([8]; Burkholderia cenocepacia (CBC 032)): 7.81 µg/mL (≈ 14.3 µM)
- MIC (R/I/S category) ([8]; Ceftazimide, CLSI criteria, B. cenocepacia (CBC 032)): S (<8 μg/ml S)
- MBC ([9]; Burkholderia cenocepacia (CBC 033)): 31.25 µg/mL (≈ 57.2 µM)
- MIC (R/I/S category) ([9]; Ceftazimide, CLSI criteria, B. cenocepacia (CBC 033)): S (<8 μg/ml S)
- MBC ([10]; Burkholderia cenocepacia (CBC 035)): 15.62 µg/mL (≈ 28.6 µM)
- MIC (R/I/S category) ([10]; Ceftazimide, CLSI criteria, B. cenocepacia (CBC 035)): S (<8 μg/ml S)
- MBC ([11]; Burkholderia cenocepacia (CBC 036)): 15.62 µg/mL (≈ 28.6 µM)
- MIC (R/I/S category) ([11]; Ceftazimide, CLSI criteria, B. cenocepacia (CBC 036)): S (<8 μg/ml S)
- MIC (R/I/S category) [12]: R (>32 μg/ml R)
- MIC (R/I/S category) [13]: R (>32 μg/ml R)
- MIC (R/I/S category) [14]: R (>32 μg/ml R)
- MBC ([15]; Burkholderia multivorans (CBC 015)): 7.81 µg/mL (≈ 14.3 µM)
- MIC (R/I/S category) ([15]; Ceftazimide, CLSI criteria, B. multivorans (CBC 015)): S (<8 μg/ml S)
- MBC ([16]; Burkholderia multivorans (CBC 016)): 3.9 µg/mL (≈ 7.14 µM)
- MIC (R/I/S category) ([16]; Ceftazimide, CLSI criteria, B. multivorans (CBC 016)): S (<8 μg/ml S)
- MBC ([17]; Burkholderia multivorans (CBC 018)): 7.81 µg/mL (≈ 14.3 µM)
- MIC (R/I/S category) ([17]; Ceftazimide, CLSI criteria, B. multivorans (CBC 018)): S (<8 μg/ml S)
- MIC (R/I/S category) [18]: R (>32 μg/ml R)
- MIC (R/I/S category) [19]: R (>32 μg/ml R)
- MIC (R/I/S category) [20]: R (>32 μg/ml R)
- MIC (R/I/S category) [21]: R (>32 μg/ml R)
- MIC (R/I/S category) [22]: R (>32 μg/ml R)
- MIC (R/I/S category) [23]: R (>32 μg/ml R)
- MBC [24]: 0.97 µg/mL (≈ 1.77 µM)
- MIC [24]: 0.97 µg/mL (≈ 1.77 µM)
- MIC (R/I/S category) [25]: R (>32 μg/ml R)
- MBC [26]: 1.95 µg/mL (≈ 3.57 µM)
- MIC [26]: 1.95 µg/mL (≈ 3.57 µM)
- MBC [27]: 7.81 µg/mL (≈ 14.3 µM)
- MIC [27]: 7.81 µg/mL (≈ 14.3 µM)
- MIC (R/I/S category) [28]: S (<8 μg/ml S)
- MIC (R/I/S category) [29]: S (<8 μg/ml S)
- resistance of the strain to commercial antibiotics [30]: resistant

Compound: NCC[C@H](O)C(=O)N[C@@H]1C[C@H](N)[C@@H](O[C@H]2O[C@H](CN)[C@@H](O)[C@H](O)[C@H]2O)[C@H](O)[C@H]1O[C@H]1O[C@H](CO)[C@@H](O)[C@H](N)[C@H]1O [amikacin]
- resistance of the strain to commercial antibiotics [30]: resistant

Compound: CC1(C)S[C@@H]2[C@H](NC(=O)[C@H](N)c3ccccc3)C(=O)N2[C@H]1C(=O)O [ampicillin]
- resistance of the strain to commercial antibiotics [30]: resistant

Compound: CC(=O)OCC1=C(C(=O)O)N2C(=O)[C@@H](NC(=O)Cc3cccs3)[C@H]2SC1 [cefalotin]
- resistance of the strain to commercial antibiotics [30]: resistant

Compound: CO/N=C(\C(=O)N[C@@H]1C(=O)N2C(C(=O)[O-])=C(C[N+]3(C)CCCC3)CS[C@H]12)c1csc(N)n1 [cefepime]
- resistance of the strain to commercial antibiotics [30]: resistant

Compound: CO/N=C(\C(=O)N[C@@H]1C(=O)N2C(C(=O)O)=C(COC(C)=O)CS[C@H]12)c1csc(N)n1 [cefotaxim]
- resistance of the strain to commercial antibiotics [30]: resistant

Compound: CO[C@@]1(NC(=O)Cc2cccs2)C(=O)N2C(C(=O)O)=C(COC(N)=O)CS[C@@H]21 [cefoxitin]
- resistance of the strain to commercial antibiotics [30]: resistant

Compound: O=C(O)c1cn(C2CC2)c2cc(N3CCNCC3)c(F)cc2c1=O [ciprofloxacin]
- resistance of the strain to commercial antibiotics [30]: resistant

Compound: CCn1cc(C(=O)O)c(=O)c2ccc(C)nc21 [nalidixic acid]
- resistance of the strain to commercial antibiotics [30]: resistant

Compound: colistin
- resistance of the strain to commercial antibiotics [30]: resistant

Compound: gentamicin
- resistance of the strain to commercial antibiotics [30]: resistant
